Test system: interaction between Human tRNA^Lys3 and HIV-1 genomic RNA
Test: Biochemical HIV-1 tRNA Inhibition Assay (AlphaScreen)
Type: binding
Set-up: key: +: showing some activity; ++: intermediate activity; +++: the highest activity
Conditions: active compounds from high throughput screening, prioritized on IC50
From the text: The methods for detecting binding of the target RNA to the tRNA or the inhibition of such binding may be performed using any method for such detection. For example, the AlphaScreen® assay (Packard Instrument Company, Meriden, Conn.). AlphaScreen® technology is an “Amplified Luminescent Proximity Homogeneous Assay” method utilizing latex microbeads (250 nm diameter) containing a photosensitizer (donor beads), or chemiluminescent groups and fluorescent acceptor molecules (acceptor beads). Upon illumination with laser light at 680 nm, the photosensitizer in the donor bead converts ambient oxygen to singlet-state oxygen. The excited singlet-state oxygen molecules diffuse approximately 250 nm (one bead diameter) before rapidly decaying. If the acceptor bead is in close proximity to the donor bead (i.e., by virtue of the interaction of the target RNA and tRNA fragment), the singlet-state oxygen molecules reacts with chemiluminescent groups in the acceptor beads, which immediately transfer energy to fluorescent acceptors in the same bead. These fluorescent acceptors shift the emission wavelength to 520-620 nm, resulting in a detectable signal. Antagonists of the interaction of the target RNA with the tRNA fragment will thus inhibit the shift in emission wavelength, whereas agonists of this interaction would enhance it.
In the AlphaScreen configuration (FIG. 3) the assay is done in solution using the same RNA as the immobilization assay. The donor and acceptor beads are bound to their respective RNA's. During the screening the RNAs and test drugs/small molecules are incubated together and formation of the complex is measured using the AlphaScreen detection conditions. Utilization of the AlphaScreen assay may allow for the assay to be run at a lower RNA concentration at room temperature, and increase the stability of the complex.
HIV-1 has evolved to use Human tRNA^Lys3 as a primer for initiation of reverse transcription. Therefore, the interaction between tRNA^Lys3 and viral genomic RNA represents a potential novel target for HIV-1 drug development. Based on this hypothesis, a biochemical assay to identify inhibitors of the interaction between Human tRNA^Lys3 and HIV-1 genomic RNA was developed by TRANA Discovery and transferred to Southern Research Institute for high-throughput screening. This assay was developed as a homogeneous amplified luminescent proximity assay using AlphaScreen™ reagents from PerkinElmer. Based on this assay technology, the AlphaScreen™ luminescent signal serves as a mechanism for detecting the interaction between RNA molecules that represent Human tRNA^Lys3 and HIV-1 genomic RNA. The inhibition of the interaction between these RNA molecules by test compounds is detected as a decrease in the AlphaScreen™ luminescent signal.
A preliminary 15,000 compound screen (NINDS Diversity Set) was previously completed and the results were reported through NIAID contract N01-AI-70042. For the results described herein, a 101,000 compound library that was purchased from ChemBridge for the NIAID TAACF program was used. This library was carefully selected for diversity and minimal similarity to the 100,000 compound NINDS library, which is also planned to be screened using the TRANA Discovery Biochemical HIV-1 tRNA Inhibition Assay. The compounds were screened at a concentration of 12.5 μg/mL (first 3 batches) or 25 μg/mL (fourth and final batch).

Row | Structure (SMILES) | Activity
1 | CCOC(=O)CCCCC(=O)c1[nH]c(=O)[nH]c1C [ethyl 6-(5-methyl-2-oxo-2,3-dihydro-1H-imidazol-4-yl)-6-oxohexanoate] | ++
2 | CN(C)c1cccc2c1C(=O)c1ccccc1C2=O [1-(dimethylamino)anthra-9,10-quinone] | ++
3 | Cc1cccc(NC2=C(NCCO)C(=O)c3ccccc3C2=O)c1 [2-[(2-hydroxyethyl)amino]-3-[(3-methylphenyl)amino]naphthoquinone] | +
4 | Cc1ccc2nc3c(c(Nc4ccc(N(C)C)cc4)c2c1)CCC3 [N,N-dimethyl-N′-(7-methyl-2,3-dihydro-1H-cyclopenta[b]quinolin-9-yl)-1,4-benzenediamine] | +
5 | CC1(C)CC(Nc2cccc3c2C(=O)c2ccccc2C3=O)CC(C)(C)N1 [1-[(2,2,6,6-tetramethyl-4-piperidinyl)amino]anthra-9,10-quinone] | +
6 | CCOC(=O)C(C(=O)c1ccccc1)C1=CC(=O)C(=O)c2ccc(Br)cc21 (stereo not drawn) [ethyl 2-(7-bromo-3,4-dioxo-3,4-dihydro-1-naphthalenyl)-3-oxo-3-phenylpropanoate] | +
7 | Cc1cccc(N2C(=O)C(=Cc3cccn3C)C(=O)NC2=S)c1 [1-(3-methylphenyl)-5-[(1-methyl-1H-pyrrol-2-yl)methylene]-2-thioxodihydro-4,6(1H,5H)-pyrimidinedione] | ++
8 | O=C1C(Nc2cccc(Cl)c2)=C(N2CCOCC2)C(=O)c2ccccc21 [2-[(3-chlorophenyl)amino]-3-(4-morpholinyl)naphthoquinone] | ++
9 | Cc1cccc(NC2=C(N3CCOCC3)C(=O)c3ccccc3C2=O)c1 [2-[(3-methylphenyl)amino]-3-(4-morpholinyl)naphthoquinone] | ++
10 | CN1C(=O)C(=Cc2c(Cl)ccc([N+](=O)[O-])c2Cl)SC1=S [5-(2,6-dichloro-3-nitrobenzylidene)-3-methyl-2-thioxo-1,3-thiazolidin-4-one] | ++
11 | CCN1C(=O)C(=Cc2ccc(O)c(O)c2)SC1=S [5-(3,4-dihydroxybenzylidene)-3-ethyl-2-thioxo-1,3-thiazolidin-4-one] | +
12 | O=C1NC(=S)N(c2ccc(Cl)cc2)C(=O)C1=Cc1ccc([N+](=O)[O-])o1 [1-(4-chlorophenyl)-5-[(5-nitro-2-furyl)methylene]-2-thioxodihydro-4,6(1H,5H)-pyrimidinedione] | +
13 | O=C1C(=Cc2ccc(O)c(O)c2)SC(=S)N1c1ccccc1 [5-(3,4-dihydroxybenzylidene)-3-phenyl-2-thioxo-1,3-thiazolidin-4-one] | +
14 | O=C1C(Nc2ccc(F)c(F)c2)=C(N2CCOCC2)C(=O)c2ccccc21 [2-[(3,4-difluorophenyl)amino]-3-(4-morpholinyl)naphthoquinone] | +
15 | CCN(CC)c1ccc(NC(=S)NC(=O)c2cccc(OC(C)C)c2)cc1 [N-({[4-(diethylamino)phenyl]amino}carbonothioyl)-3-isopropoxybenzamide] | +
16 | COc1cccc(NC2=C(N3CCOCC3)C(=O)c3ccccc3C2=O)c1 [2-[(3-methoxyphenyl)amino]-3-(4-morpholinyl)naphthoquinone] | ++
17 | Cc1ccc(N2CCCCC2)c2c1C(=O)c1ccccc1C2=O [1-methyl-4-(1-piperidinyl)anthra-9,10-quinone] | ++
18 | O=C1C(Cl)=C(NCc2ccccc2)C(=O)c2ccccc21 [2-(benzylamino)-3-chloronaphthoquinone] | +
19 | CCOc1ccc2c(c1)-c1c(s[s+]c1SC)C(C)(C)N2.[Cl-] [8-ethoxy-4,4-dimethyl-1-(methylthio)-4,5-dihydro[1,2]dithiolo[3,4-c]quinolin-2-ium chloride] | ++
20 | COc1ccc2c(c1)-c1c(ssc1=S)C(C)(C)N2C(C)=O [5-acetyl-8-methoxy-4,4-dimethyl-4,5-dihydro-1H-[1,2]dithiolo[3,4-c]quinoline-1-thione] | +
21 | NN1C(=O)C(=Cc2ccc(O)c(O)c2)SC1=S [3-amino-5-(3,4-dihydroxybenzylidene)-2-thioxo-1,3-thiazolidin-4-one] | +
22 | O=C1c2ccccc2C(=O)c2c1cccc2N1CCCC1 [1-(1-pyrrolidinyl)anthra-9,10-quinone] | ++
23 | CCOC(=O)c1ccc(NC2=C(N3CCOCC3)C(=O)c3ccccc3C2=O)cc1 [ethyl 4-{[3-(4-morpholinyl)-1,4-dioxo-1,4-dihydro-2-naphthalenyl]amino}benzoate] | ++
24 | Cc1ccc2c(c1)-c1c(s[s+]c1SCC(=O)c1ccc([N+](=O)[O-])cc1)C(C)(C)N2.[Cl-] [4,4,8-trimethyl-1-{[2-(4-nitrophenyl)-2-oxoethyl]thio}-4,5-dihydro[1,2]dithiolo[3,4-c]quinolin-2-ium chloride] | ++
25 | COC(=O)c1ccc(NC2=C(N3CCCC3)C(=O)c3ccccc3C2=O)cc1 [methyl 4-{[1,4-dioxo-3-(1-pyrrolidinyl)-1,4-dihydro-2-naphthalenyl]amino}benzoate] | ++
26 | O=C1NC(=O)N(c2cccc3ccccc23)C(=O)C1=Cc1ccco1 [5-(2-furylmethylene)-1-(1-naphthyl)-2,4,6(1H,3H,5H)-pyrimidinetrione] | +

Test system: not listed separately
Test: assays described herein (not specified)
Conditions: not given

Row | Structure (SMILES) | active in the assays described herein
27 | CNC(=S)N1N=C(c2ccc(OC)cc2)CC1c1ccc(N(C)C)cc1 (stereo not drawn) [Compound 40, 5-[4-(dimethylamino)phenyl]-3-(4-methoxyphenyl)-N-methyl-4,5-dihydro-1H-pyrazole-1-carbothioamide] | active
28 | O=C(O)CCCCC1SCC2NC(=O)NC21 (stereo not drawn) [Compound 8, 5-(2-oxohexahydro-1H-thieno[3,4-d]imidazol-4-yl)pentanoic acid] | active
29 | CCCOc1ccc(C2Oc3ccc(Br)cc3C=C2[N+](=O)[O-])cc1OC (stereo not drawn) [Compound 59, 6-bromo-2-(3-methoxy-4-propoxyphenyl)-3-nitro-2H-chromene] | active
30 | CCOc1ccc(C(=O)c2ccc(N3CC(C)OC(C)C3)c([N+](=O)[O-])c2)cc1 (stereo not drawn) [Compound 102, [4-(2,6-dimethyl-4-morpholinyl)-3-nitrophenyl](4-ethoxyphenyl)methanone] | active
31 | CN(C)c1ccc(C(O)(c2ccc(N(C)C)cc2)c2ccc(N(C)C)cc2)cc1 [Compound 7, tris[4-(dimethylamino)phenyl]methanol] | active
32 | O=C(c1ccc(Br)cc1)c1ccc(N2CCCCC2)c([N+](=O)[O-])c1 [Compound 92, (4-bromophenyl)[3-nitro-4-(1-piperidinyl)phenyl]methanone] | active
33 | CCc1ccc(C2=CC(=O)c3ccccc3C2=O)cc1 [Compound 26, 2-(4-ethylphenyl)naphthoquinone] | active
34 | O=C1NC(=O)N(c2ccc(Cl)cc2)C(=O)C1=Cc1ccc([N+](=O)[O-])o1 [Compound 65, 1-(4-chlorophenyl)-5-[(5-nitro-2-furyl)methylene]-2,4,6(1H,3H,5H)-pyrimidinetrione] | active
35 | CCc1ccc(N2N=C(C)C(=Cc3ccc(N4CCOCC4)cc3)C2=O)cc1 [Compound 32, 2-(4-ethylphenyl)-5-methyl-4-[4-(4-morpholinyl)benzylidene]-2,4-dihydro-3H-pyrazol-3-one] | active
36 | CCc1cc2c(=S)c(-c3ccccc3Cl)coc2cc1OC [Compound 47, 3-(2-chlorophenyl)-6-ethyl-7-methoxy-4H-chromene-4-thione] | active
37 | O=[N+]([O-])c1ccccc1SNc1ccc2c(c1)OCO2 [Compound 75, 5-{[(2-nitrophenyl)thio]amino}-1,3-benzodioxole] | active
38 | O=c1cc2oc3cc(O)c(O)cc3c(-c3ccc([N+](=O)[O-])o3)c-2cc1O [Compound 38, 2,6,7-trihydroxy-9-(5-nitro-2-furyl)-3H-xanthen-3-one] | active
39 | Oc1ccc(C(c2c[nH]c3ccccc23)c2c[nH]c3ccccc23)cc1O [Compound 86, 4-(di-1H-indol-3-ylmethyl)-1,2-benzenediol] | active
